Literature values in patent US20120275998A1, “BIODEGRADABLE STENT COMPRISING AN ACID SCAVENGING AGENT” (priority 2009, published 2012).

Soluble (solvents) (solvents in which the substance is soluble): Ethanol, dimethyl sulfoxide | Water solubility (water): slightly soluble in water
SMILES: OCCN(CCO)c1nc(N2CCCCC2)c2nc(N(CCO)CCO)nc(N3CCCCC3)c2n1 [Dipyridamole, 2,6-bis(dithioethanolamino)-4,8-dipiperidinopyrimido(5,4-d)pyrimidine]
